Several values for one entry are separate records, joined by “and”; a condition that tells them apart may be missing. Identical values can stand only once.
Legend:
Rattus norvegicus [1] = test system: Rattus norvegicus
Rattus norvegicus [2] = test system: Rattus norvegicus; remark: listed apart in the source
[3] = short-term, duration: 2 weeks, inhalation, F, Wistar, generation: P0, P0: Lung: Lung Weight, Relative
[4] = short-term, duration: 2 weeks, inhalation, M, Wistar, generation: P0, P0: Lung: Lung Weight, Relative
[5] = short-term, duration: 28 days, inhalation, F, Wistar, Teeth: Incisors, Discolored
[6] = short-term, duration: 28 days, inhalation, M, Wistar, Teeth: Incisors, Discolored
[7] = short-term, duration: 28 days, oral, gavage, F, Wistar, Blood: Red Cell Distribution Width (RDW) + Liver: Total Cholesterol (CHOL)
[8] = short-term, duration: 28 days, oral, gavage, M, Wistar, Blood: Hemoglobin (HGB) + Liver: Total Bilirubin (TBILI)
[9] = short-term, duration: 28 days, oral, gavage, M, Sprague-Dawley, Liver: Liver Weight, Relative

O=C(Cl)C(Cl)Cl [Dichloroacetyl chloride]
LD50 (Rattus norvegicus [1]; acute, oral): 2460 mg/kg
NOAEL (Rattus norvegicus [1]; subchronic, duration: 30 days, inhalation, Sprague-Dawley): 6.03 mg/m3

COC [Dimethyl ether]
LC50 (Rattus norvegicus [1]; acute, inhalation, Sprague-Dawley): 309000 mg/m3

F/C(=C(/F)C(F)(C(F)(F)F)C(F)(F)F)C(F)(F)F [(E)-Perfluoro(4-methyl-2-pentene)]
LOAEL (Rattus norvegicus [2]; acute, duration: 4 hours, inhalation, F, Wistar, Central Nervous System: Hunched Posture + Central Nervous System: Ruffled Fur + Lung: Lung, Non-Neoplastic Lesions + Lung: Tachypnea + Whole…): 21.7 mg/L
LOAEL (Rattus norvegicus [2]; acute, duration: 4 hours, inhalation, M, Wistar, Central Nervous System: Frightened behavior + Central Nervous System: Ruffled Fur + Central Nervous System: Tremor + Lung: Lung, Non-…): 21.7 mg/L
NOAEL (Rattus norvegicus [2]; developmental, duration: 2 weeks, inhalation, M/F, Wistar, generation: F1, F1: Whole Body: Clinical Signs + F1: Whole Body: Fetal Alterations, Total + F1: Whole Body: Male Pups per Pups Sexed + F1: Whole Body: Pup …): 4290 mg/m3 and 4300 mg/m3
NOAEL (Rattus norvegicus [2]; reproduction developmental, duration: 2 weeks, inhalation, F, Wistar, generation: P0, P0: Ovary: Corpora Lutea + P0: Uterus: Implantation + P0: Whole Body: Dams with Stillborn Pups + P0: Whole Body: Days of Cohabitation + P0: …): 4290 mg/m3 and 4300 mg/m3
NOAEL (Rattus norvegicus [2]; reproduction developmental, duration: 2 weeks, inhalation, M, Wistar, generation: P0, P0: Whole Body: Days of Cohabitation + P0: Whole Body: Fertility Index + P0: Whole Body: Percent Mating): 4290 mg/m3 and 4300 mg/m3
NOAEL (Rattus norvegicus [2]; short-term, duration: 2 weeks, inhalation, F, Wistar, generation: P0, P0: Kidney: Kidney, Faded + P0: Liver: Liver Weight, Absolute + P0: Liver: Liver Weight, Relative + P0: Lung: Lung Weight, Absolute + P0: …): 4290 mg/m3 and 4300 mg/m3
LOAEL (Rattus norvegicus [2]; short-term, duration: 2 weeks, inhalation, F, Wistar, generation: P0, P0: Kidney: Kidney, Faded + P0: Thymus: Thymus, Small + P0: Whole Body: Body Weight Change + P0: Whole Body: Body Weight, Absolute + P0: …): 9200 mg/m3
LOAEL (Rattus norvegicus [2]; [3]): 4290 mg/m3 and 4300 mg/m3
NOAEL (Rattus norvegicus [2]; [3]): 1840 mg/m3
NOAEL (Rattus norvegicus [2]; short-term, duration: 2 weeks, inhalation, M, Wistar, generation: P0, P0: Epididymis: Epididymis Weight, Absolute + P0: Epididymis: Epididymis Weight, Relative + P0: Epididymis: Epididymis, Duct, Exfoliated …): 4290 mg/m3 and 4300 mg/m3
LOAEL (Rattus norvegicus [2]; short-term, duration: 2 weeks, inhalation, M, Wistar, generation: P0, P0: Epididymis: Epididymis, Small + P0: Kidney: Kidney, Faded + P0: Prostate: Prostate, Small + P0: Seminal Vesicle: Seminal Vesicle, Small…): 9200 mg/m3
LOAEL (Rattus norvegicus [2]; [4]): 4290 mg/m3 and 4300 mg/m3
NOAEL (Rattus norvegicus [2]; [4]): 1840 mg/m3
NOAEL (Rattus norvegicus [2]; short-term, duration: 2 weeks, inhalation, M, Wistar, generation: P0, P0: Whole Body: Feed Consumption, Absolute): 9200 mg/m3
NOAEL (Rattus norvegicus [2]; short-term, duration: 28 days, inhalation, F, Wistar, Adrenal: Adrenal Gland Weight, Absolute + Blood: Albumin/Globulin (A/G) Ratio + Blood: Hemoglobin (HGB) + Blood: Mean Cell Volume (MCV) + …): 3070 mg/m3
LOAEL (Rattus norvegicus [2]; [5]): 3070 mg/m3
NOAEL (Rattus norvegicus [2]; [5]): 1230 mg/m3 and 1220 mg/m3
NOAEL (Rattus norvegicus [2]; short-term, duration: 28 days, inhalation, M, Wistar, Adrenal: Adrenal Gland Weight, Absolute + Blood: Albumin/Globulin (A/G) Ratio + Blood: Hemoglobin (HGB) + Blood: Mean Cell Volume (MCV) + …): 3070 mg/m3
LOAEL (Rattus norvegicus [2]; [6]): 3070 mg/m3
NOAEL (Rattus norvegicus [2]; [6]): 1230 mg/m3 and 1220 mg/m3
NOAEL (Rattus norvegicus [2]; short-term, duration: 28 days, oral, gavage, F, Wistar, Adrenal: Adrenal Gland Histopathology + Blood: Mean Cell Hemoglobin (MCH) + Blood: Platelet Count (PLT) + Bone: Femur Histopathology + Bone…): 450 mg/kg-day
LOAEL (Rattus norvegicus [2]; short-term, duration: 28 days, oral, gavage, F, Wistar, Blood: Hematocrit (HCT) + Blood: Hemoglobin (HGB), Recovery + Blood: Mean Cell Volume (MCV) + Blood: Red Blood Cell (RBC) + Calcium (CA) + …): 450 mg/kg-day
NOAEL (Rattus norvegicus [2]; short-term, duration: 28 days, oral, gavage, F, Wistar, Blood: Hematocrit (HCT) + Blood: Mean Cell Volume (MCV) + Blood: Red Blood Cell (RBC) + Calcium (CA) + Chloride (CL) + Gamma-glutamyl …): 150 mg/kg-day
LOAEL (Rattus norvegicus [2]; short-term, duration: 28 days, oral, gavage, F, Wistar, Blood: Hemoglobin (HGB) + Blood: Mean Cell Hemoglobin Concentration (MCHC) + Liver: Liver Weight, Absolute + Spleen: Spleen Weight, Absolute): 50 mg/kg-day
LOAEL (Rattus norvegicus [2]; [7]): 150 mg/kg-day
NOAEL (Rattus norvegicus [2]; [7]): 50 mg/kg-day
NOAEL (Rattus norvegicus [2]; short-term, duration: 28 days, oral, gavage, M, Wistar, Adrenal: Adrenal Gland Histopathology + Bone: Femur Histopathology + Bone: Sternum Histopathology + Brain: Brain Weight, Absolute, Recovery…): 450 mg/kg-day
LOAEL (Rattus norvegicus [2]; short-term, duration: 28 days, oral, gavage, M, Wistar, Blood: Hematocrit (HCT) + Blood: Mean Cell Hemoglobin Concentration (MCHC), Recovery + Blood: Mean Cell Volume (MCV) + Blood: Platelet Count…): 450 mg/kg-day
NOAEL (Rattus norvegicus [2]; short-term, duration: 28 days, oral, gavage, M, Wistar, Blood: Hematocrit (HCT) + Blood: Mean Cell Volume (MCV) + Blood: Platelet Count (PLT) + Blood: Red Blood Cell (RBC) + Blood: Red Cell …): 150 mg/kg-day
LOAEL (Rattus norvegicus [2]; [8]): 150 mg/kg-day
NOAEL (Rattus norvegicus [2]; [8]): 50 mg/kg-day
LOAEL (Rattus norvegicus [2]; short-term, duration: 28 days, oral, gavage, M, Wistar, Blood: Mean Cell Hemoglobin (MCH) + Blood: Mean Cell Hemoglobin Concentration (MCHC) + Brain: Brain Weight, Absolute + Testis: Testis Weight…): 50 mg/kg-day

FC(F)C(F)(F)C(F)(F)C(F)(F)C(F)(F)C(F)(F)F [1H-Perfluorohexane]
NOAEL (Rattus norvegicus [2]; developmental, duration: 20 days, parental, M/F, Wistar, generation: F1, F1: Thyroid: Thyroxine (T4) + F1: Trunk: Anogenital Distance + F1: Whole Body: Body Weight, Fetal + F1: Whole Body: Clinical Observations + …): 1000 mg/kg-day
NOAEL (Rattus norvegicus [2]; reproduction developmental, duration: 20 days, parental, M, Wistar, generation: F1, F1: Trunk: Areola/Nipple Retention): 1000 mg/kg-day
NOAEL (Rattus norvegicus [2]; reproduction developmental, duration: 29 days, oral, gavage, M, Wistar, generation: P0, P0: Epididymis: Epididymis Weight, Absolute + P0: Prostate: Prostate Weight, Absolute + P0: Seminal Vesicle: Seminal Vesicles Weight (w/o …): 1000 mg/kg-day
NOAEL (Rattus norvegicus [2]; reproduction developmental, duration: 29 days, oral, gavage, M, Wistar, generation: P0, P0: Peripheral Nervous System: Functional Observational Battery Tests + P0: Thyroid: Thyroid Gland Weight, Absolute + P0: Thyroid: Thyroxine…): 1000 mg/kg-day
NOAEL (Rattus norvegicus [2]; reproduction developmental, duration: 64 days, oral, gavage, F, Wistar, generation: P0, P0: Heart: Heart Gross Pathology + P0: Heart: Heart Histopathology + P0: Kidney: Kidney Gross Pathology + P0: Kidney: Kidney Histopathology…): 1000 mg/kg-day
NOAEL (Rattus norvegicus [2]; reproduction developmental, duration: 64 days, oral, gavage, F, Wistar, generation: P0, P0: Testis: Ovary Histopathology + P0: Uterus: Estrous Cyclicity + P0: Uterus: Implantation + P0: Whole Body: Conception Index + P0: Whole …): 1000 mg/kg-day
NOAEL (Rattus norvegicus [2]; short-term, duration: 28 days, oral, gavage, F, Sprague-Dawley, Adrenal: Adrenal Gland Histopathology + Adrenal: Adrenal Gland Weight, Relative + Blood: Hematology, Unspecified + Brain: Brain Weight, …): 1000 mg/kg-day
NOAEL (Rattus norvegicus [2]; short-term, duration: 28 days, oral, gavage, M, Sprague-Dawley, Adrenal: Adrenal Gland Histopathology + Adrenal: Adrenal Gland Weight + Blood: Hematology, Unspecified + Brain: Brain Weight, Relative + …): 1000 mg/kg-day
LOAEL (Rattus norvegicus [2]; [9]): 1000 mg/kg-day
NOAEL (Rattus norvegicus [2]; [9]): 200 mg/kg-day

Source: EPA's ToxValDB 9.5
